Values of other authors in patent US10174015B2, “Substituted heterocyclic derivative, preparation method and use thereof” (Xiamen University, priority 2014, dated 2019).

Columns and labels:
[1] = tested on: NAAA; settings: NAAA inhibitor, literature value; cited from earlier work
[2] = tested on: inflammatory pain induced by carrageenan and neuropathic pain caused by sciatic nerve ligation; settings: cited from earlier work
[3] = tested on: leukocyte migration and inflammatory exudation; settings: topical administration; cited from earlier work

C[C@@H]1OC(=O)[C@@H]1NC(=O)OCCCCCc1ccccc1 [ARN077]
IC50 [1]: 127 nM | analgesic effects on allodynia compared with gabapentin ([2]; sciatic nerve ligation, ARN077 1%, 20 μL, epidermal, gabapentin 50 mg/kg oral): better analgesic effects on allodynia than the positive control agent gabapentin | effect on inflammatory and neuropathic pain ([2]; topical administration): significantly inhibit inflammatory pain induced by carrageenan and neuropathic pain caused by sciatic nerve ligation

O=C(CCc1ccccc1)N[C@H]1COC1=O [S-OOPP]
IC50 [1]: 420 nM | effect on leukocyte migration and inflammatory exudation [3]: inhibiting leukocyte migration and inflammatory exudation
